From patent publication US20250134904A1, “SOLID PHARMACEUTICAL FORMULATIONS OF VARENICLINE” (MEDICHEM, S.A., priority 2021, published 2025)
Where a name gives a salt, the structure may show the parent alone.

Tests used:
[1] = based on lifetime exposure; cited from earlier work
[2] = HPLC-MS quantification of N-nitroso-varenicline impurity (II) in tablets, after manufacture and after storage/stress; type: physicochemical; conditions: starting material before tablet manufacture
Experimental: The N-nitroso-varenicline-impurity (II) level in the solid pharmaceutical formulation of the present invention may be detected by high performance liquid chromatography (HPLC) method disclosed in the present invention.
HPLC Method Used for Analyzing N-Nitroso-Varenicline Impurity (II)
The chromatographic separation was carried out using an Acquity UPLC HSS PFP, 2.1×100 mm, 1.8 μm at 35±2° C.
Mobile phase A: 0.05% (v/v) formic acid solution in water.
Mobile phase A is prepared as follows: Dilute with water, 0.5 mL of formic acid in a 1000 mL volumetric flask.
Mobile phase B: Acetonitrile LC-MS grade.
The chromatograph was programmed as follows: initial 2 min isocratic 90% mobile phase A; 2-11 min linear gradient to 50% mobile phase A; 11-16 min isocratic 50% mobile phase A; 16-18 min linear gradient to 90% mobile phase A; 18-23 min isocratic 90% mobile phase A.
The chromatograph was equipped with equipped with a mass detector. The acquisition was made in Single Ion Monitoring. The ion with m/z 241.0 was monitored at 0.8 points/s. The ionization mode was positive electrospray (ESI+), the source temperature was set at 130° C., desolvation gas flow was at 500 L/h and the capillary voltage was set at 3 kV. The cone voltage was set at 20 V for the ion with m/z 241.0. […]
The quantification (μg/g or ppm) of N-nitroso-varenicline impurity (II) in test specimen was performed as follows: […]

SMILES: O=NN1CC2CC(C1)c1cc3nccnc3cc12 [N-nitroso-varenicline impurity (II)]
- intake considered reasonably safe for humans (FDA) [1]: up to 37 ng/day

SMILES: c1cnc2cc3c(cc2n1)C1CNCC3C1 [varenicline tartrate, 7,8,9,10-tetrahydro-6,10-methano-6H-pyrazino[2,3-h][3]benzazepine]
- N-nitroso-varenicline impurity (II) content of the varenicline tartrate used as starting material [2]: less than 0.4 ppm
